Test results reported in US20220079993A1, “NON-NATURALLY OCCURRING THERMOGENIC ADIPOCYTES, METHODS OF MAKING, AND METHODS OF USE THEREOF” (University of Georgia Research Foundation, Inc., priority 2019, published 2022).
Structures can show the parent of a compound that is named as a salt. Where two headings read alike, the source gives them in different places.

Tests used:
Assay type in all cases: cell-based, human
UCP1 = assay: Secondary screen, UCP1 transcript levels by qRT-PCR; conditions: secondary screen of primary hits
From the text: FIG. 8A is a scheme used for high-throughput screening (HTS). FIG. 8B is a scatter-plot of glycerol release for each compound assayed (n=3889) in an HTS screen. Data are shown as the percentage of glycerol released compared to untreated beige adipocytes (% of control). FIG. 8C is a computational analysis of preliminary hits identified in the HTS using BiNChE. FIG. 8D is a plot showing the results of a secondary hit validation of primary compounds performed by evaluating levels of UCP1 transcript by qRT-PCR. Unstimulated beige cells, selected adrenergic agonists, and potential new non-adrenergic beige fat activators identified in the primary screen are shown. Transcript levels were normalized to UCP1 levels in ADSCs, n=3 for each technical 20 replicate. *P<0.0.05, **P<0.01, ***P<0.005. FIGS. 8E and 8F are bar graphs showing secondary screening of known thermogenic activators. Transcript levels of UCP1 were assayed in unstimulated ADSCs and ADSC-derived beige adipocytes and following treatment with forskolin (FSK, 20 μM), isoproterenol (1, 10 μM) (8E) and Mirabegron (1, 10 and 25 μM) (8F). Transcript levels were determined by qRT-PCR. n=3 for each independent replicate. Data are mean+/−standard deviation. *P<0.0.05, **P<0.01.
Cells were washed with DPBS, lysed directly on the plate and used for RNA isolation with the E.Z.N.A Total RNA Kit (Omega, R6834-02) according to manufacturer instructions. RNA quantitation was performed with the Biotek Synergy 2 plate reader and cDNA was synthesized using 1 ug of RNA with the iScript cDNA Synthesis Kit (Bio-Rad, 1708841). The qRT-PCR was performed on a ViiA7 Real-Time PCR System (ThermoFisher) using a TaqMan Universal PCR Master Mix (ThermoFisher, 4324020) according to manufacturer instructions with the following TaqMan primer/probe sets (UCP1, Hs01084772_m1), DIO2, Hs00988260_ml, 18S rRNA, Hs03928985_g1). Each assay was performed in triplicate and normalized to 18S rRNA and graphed as mean+/−standard deviation.
To determine if hits identified in the first-round screen activated the thermogenic program, UCP1 transcript levels were used as a readout. This secondary screen incorporated adrenergic agonists, such as Mirabegron, isoproterenol and phenylephrine, and eighteen additional compounds with no reported function in thermogenic regulation (FIG. 8D, 8E, 8F). 18/25 (72%) of the lipolysis-activating compounds identified in the primary screen also activate the thermogenic program through UCP1. Twelve of these compounds have no reported adrenergic agonist activity and could potentially operate through different signaling mechanisms (FIG. 8D and Table 9).

beige adipocytes [1] = assay: Lipolysis validation assays of primary hits at three concentrations; set-up: % of Control (1) / % of Control (2) / % of Control (3) / % of Control (4): unit of the concentration uncertain; conditions: for activity at 2.2 µM: Conc. 2.2 µM; for activity at 6.7 µM: Conc. 6.7 µM; for activity at 20 µM: Conc. 20 µM; for activity at 2200 µM: Conc. 2.2 mM
Method: (§1) ADSCs were seeded at 5000 cell/cm^2 in 12-well plates, grown for 5 days and then induced to differentiate into GC for 20 days. Prior to the assay, cells were washed in DPBS twice and then incubated with DMEM with 2% fatty-acid free BSA (Santa Crus, sc-500949) and Triascin C (5 μM). Cells were treated with forskolin (20 μM) for indicated time periods and supernatant samples were collected. Lipolysis assay was performed with free glycerol reagent (Sigma, F6428-40ML), according to manufacturer instructions.
(§2) Lipolysis assays were performed after 24 hours of drug treatment by measuring free glycerol released in the 384-well format, using the procedure described above. Absorbance for each compound was normalized to untreated control samples for each plate and calculated as a percent of the control. Cut-offs for “activating” and “inhibiting” compounds were set at 2-fold. Validation assays were performed for select compounds at a range of concentration doses.
Next, lipolysis assays were performed for all 111 compounds identified in the primary screen at three different concentrations, of which twenty-four were selected for further analysis based on their newness and/or reproducibility.

beige adipocytes [2] = assay: High-throughput primary screen, lipolysis assay (glycerol release), 384-well; conditions: 20 μM
Method: as §1, with “Prior to the assay, cells were washed in DPBS twice and then incubated with DMEM with 2% fatty-acid free BSA (Santa Crus, sc-500949) and Triascin C (5 μM).” left out
ADSCs were plated in 384-well plates at a density of 5000 cell/cm2 and grown to confluency over ˜4 days. Cells were then differentiated to beige adipocytes using B-8 medium for 21 days. All cell culture and incubations in the 384-well format were done at 37° C. and 5% CO2. […] The use of FDA-approved drugs may allow for re-purposing for therapeutic use.
as §2

[3] = Homo sapiens, Adipocyte, 24 h, read-out: % of Control (2)
[4] = Homo sapiens, Adipocyte, 24 h, read-out: % of Control (4)
[5] = Homo sapiens, Adipocyte, 24 h, read-out: % of Control (1)
[6] = Homo sapiens, Adipocyte, 24 h, read-out: % of Control (3)

Compound	Activation of the thermogenic program (UCP1 transcript), in words (UCP1)	activity at 2.2 µM (beige adipocytes [1]; [3]) [%]	activity at 2.2 µM (beige adipocytes [1]; [4]) [%]	activity at 6.7 µM (beige adipocytes [1]; [5]) [%]	activity at 6.7 µM (beige adipocytes [1]; [3]) [%]	activity at 6.7 µM (beige adipocytes [1]; [6]) [%]	activity at 6.7 µM (beige adipocytes [1]; [4]) [%]	activity at 20 µM (beige adipocytes [1]; [5]) [%]	activity at 20 µM (beige adipocytes [1]; [3]) [%]	activity at 20 µM (beige adipocytes [1]; [6]) [%]	activity at 20 µM (beige adipocytes [1]; [4]) [%]	activity at 2200 µM (beige adipocytes [1]; [5]) [%]	activity at 2200 µM (beige adipocytes [1]; [6]) [%]	% of Control (1) (beige adipocytes [1]; Conc. 2.2 (unit uncertain))	% of Control (2) (beige adipocytes [1]; Conc. 2.2 (unit uncertain))	% of Control (3) (beige adipocytes [1]; Conc. 2.2 (unit uncertain))	% of Control (4) (beige adipocytes [1]; Conc. 2.2 (unit uncertain))	% of Control (1) (beige adipocytes [1]; Conc. 6.7 (unit uncertain))	% of Control (2) (beige adipocytes [1]; Conc. 6.7 (unit uncertain))	% of Control (3) (beige adipocytes [1]; Conc. 6.7 (unit uncertain))	also measured
O=C1CN2Cc3c(ccc(Cl)c3Cl)N=C2N1 [Anagrelide HCl]	efficacy in beige cell activation	146	144	195	268	191	156	196	183	212	161	125	124								
Cc1ccccc1N1CCN(S(=O)(=O)C[C@]23CC[C@H](C[C@@H]2NC(=O)[C@@H](N)CCS(C)(=O)=O)C3(C)C)CC1 [L-368, 899]	activators in both rounds of screening													196.9 % of Control	128 % of Control	118.57 % of Control	91.72 % of Control	185.48 % of Control	151.88 % of Control	130.11 % of Control	% of Control (4) (beige adipocytes [1]; Conc. 6.7 (unit uncertain)): 148.51 % of Control; % of Control (1) (beige adipocytes [1]; Conc. 20 (unit uncertain)): 143.81 % of Control; % of Control (2) (beige adipocytes [1]; Conc. 20 (unit uncertain)): 179.29 % of Control; % of Control (3) (beige adipocytes [1]; Conc. 20 (unit uncertain)): 192.97 % of Control; % of Control (4) (beige adipocytes [1]; Conc. 20 (unit uncertain)): 166.21 % of Control
CC1(C)C(=O)N(CCN2CCC(C(=O)c3ccc(F)cc3)CC2)c2ccccc21 [LY-310, 762]	activators in both rounds of screening													179.4 % of Control	180.24 % of Control	180.44 % of Control	143.79 % of Control	179.76 % of Control	199.88 % of Control	222.09 % of Control	% of Control (4) (beige adipocytes [1]; Conc. 6.7 (unit uncertain)): 289.77 % of Control; % of Control (1) (beige adipocytes [1]; Conc. 20 (unit uncertain)): 264.29 % of Control; % of Control (2) (beige adipocytes [1]; Conc. 20 (unit uncertain)): 223.06 % of Control; % of Control (3) (beige adipocytes [1]; Conc. 20 (unit uncertain)): 225.27 % of Control; % of Control (4) (beige adipocytes [1]; Conc. 20 (unit uncertain)): 201.38 % of Control
Nc1nc(CC(=O)Nc2ccc(CCNC[C@H](O)c3ccccc3)cc2)cs1 [Mirabegron]		198	131		162	168	192	200	211	65	201	142	172								activity at 6700 µM (beige adipocytes [1]; Homo sapiens, Adipocyte, 24 h, Conc. 6.7 mM, read-out: % of Control (1)): 203%; % Control (relative levels of glycerol release) (beige adipocytes [2]; 24 hours of drug treatment, vs untreated beige adipocytes): 211.65 % control; Outcome in the primary screen (glycerol release), in words (beige adipocytes [2]; 24 hours, cut-offs at 2-fold): efficacy in the HTS
COc1ccc(-c2cc3c(C)nc(N)nc3n([C@H]3CC[C@H](OCCO)CC3)c2=O)cn1 [PF-04691502]	activators in both rounds of screening													171.55 % of Control	138.35 % of Control	232.86 % of Control	105.98 % of Control	257.98 % of Control	216.59 % of Control	225.05 % of Control	% of Control (4) (beige adipocytes [1]; Conc. 6.7 (unit uncertain)): 155.98 % of Control; % of Control (1) (beige adipocytes [1]; Conc. 20 (unit uncertain)): 304.52 % of Control; % of Control (2) (beige adipocytes [1]; Conc. 20 (unit uncertain)): 224.71 % of Control; % of Control (3) (beige adipocytes [1]; Conc. 20 (unit uncertain)): 171.76 % of Control; % of Control (4) (beige adipocytes [1]; Conc. 20 (unit uncertain)): 302.07 % of Control
Cc1ccc([N+](=O)[O-])cc1S(=O)(=O)N(C)/N=C/c1cnc2ccc(Br)cn12 [PIK-75]	activators in both rounds of screening													197.74 % of Control	134.71 % of Control	183.08 % of Control	136.9 % of Control	280.95 % of Control	197.53 % of Control	165.05 % of Control	% of Control (4) (beige adipocytes [1]; Conc. 6.7 (unit uncertain)): 207.93 % of Control; % of Control (1) (beige adipocytes [1]; Conc. 20 (unit uncertain)): 158.45 % of Control; % of Control (2) (beige adipocytes [1]; Conc. 20 (unit uncertain)): 244.82 % of Control; % of Control (3) (beige adipocytes [1]; Conc. 20 (unit uncertain)): 198.79 % of Control; % of Control (4) (beige adipocytes [1]; Conc. 20 (unit uncertain)): 233.79 % of Control
CC[C@@H]1C(=O)OC[C@@H]1Cc1cncn1C [Pilocarpine nitrate]	activators in both rounds of screening	135	89.8	220	260	167	84.2	200	290	230	181	109	176								
Cc1cc(C)c(/C=C2\C(=O)Nc3ccccc32)[nH]1 [SU 5416]	activators in both rounds of screening	379	232	349	366	251	238	283	267	233	246	281	214								
COc1cc2c(cc1OC)-c1c/c(=N\c3c(C)cc(C)cc3C)n(C)c(=O)n1CC2 [Trequinsin HCl]	efficacy in beige cell activation	251	244	271	264	232	215	284	292	256	248	240	188								
